Assay results taken from PMC12069340 (Frontiers in Cellular and Infection Microbiology, 2025).
Structures can show the parent of a compound that is named as a salt.

Test system: A/PuertoRico/8/1934 (H1N1) virus
Assay: microbe, parasite or virus in culture
Type: cell-based, influenza A virus
Details: 20 µM

Molecule | NA Inhibition (%)
(-)-MK 801 Maleate | 26.1%
CN1CCC(c2c[nH]c3ccc(O)cc23)CC1 [BRL-54443] | 23.6%
L-Adrenaline | -38.4
Br.Br.NCCCCCNCC12CC3CC(CC(C3)C1)C2 [IEM 1754 dihydrobroMide] | 23.2%
Cl.Cl.NCCc1c[nH]cn1 [Histamine 2HCl] | 2.5
CCCCOc1ccc(C(=O)Nc2ccc(F)cc2F)cc1 [VU 0357121] | 29.7%
CN(C)CCC(c1ccc(Br)cc1)c1ccccn1.O=C(O)/C=C\C(=O)O (stereo not drawn) [Brompheniramine hydrogen maleate] | 12.4%
Cc1cccc(C#Cc2ccccc2)n1 [MPEP] | 32.6%
CC(C)c1cc(-c2ccc(F)c3ccccc23)nc(N)n1 [RS-127445] | 20.3%
O=C(O)CCCN1CCC(O[C@@H](c2ccc(Cl)cc2)c2ccccn2)CC1.O=S(=O)(O)c1ccccc1 [Bepotastine Besilate] | 21.1%
OC(CN1CCN(c2cccc(Cl)c2)CC1)C(c1ccccc1)c1ccccc1 (stereo not drawn) [BRL-15572] | 24.4%
CCC1=C[C@@H]2CN3CCc4c([nH]c5ccccc45)[C@@](C(=O)OC)(C2)[C@@H]13 [Catharanthine] | 42.3%
Cc1cncc(CN2CCC(=C3c4ccc(Cl)cc4CCc4cccnc43)CC2)c1.O=C(O)/C=C/C(=O)O [Rupatadine Fumarate] | 22.5%
CNCC(=O)c1ccc(O)c(O)c1.Cl [Adrenalone HCl] | 6.4%
CNCCc1ccccn1.Cl.Cl [Betahistine 2HCl] | 4.8%
CC(C)N(CCC(c1ccccc1)c1cc(CO)ccc1O)C(C)C (stereo not drawn) [5-hydroxymethyl Tolterodine] | 6.5%
COc1ccc(NS(=O)(=O)c2sc3ccc(Cl)cc3c2C)cc1N1CCNCC1.Cl [SB271046 HCl] | 18.8%
CN1c2ccccc2C(NCCCCCCC(=O)[O-])c2ccc(Cl)cc2S1(=O)=O.[Na+] (stereo not drawn) [Tianeptine sodium] | 4.5%
Cc1cccc([C@H](C)c2cnc[nH]2)c1C [Dexmedetomidine] | 21.4
O=C(c1ccc(F)cc1)N1CCC[C@H](c2nc(-c3ccc(F)cc3)no2)C1 [ADX-47273] | 34.4%
CCc1ccc(OCc2ccccc2C(=O)Nc2ccc3nc(C)cc(N)c3c2)cc1 [JTC-801] | 41.4%
CN1CCN(c2nc3ccccc3nc2Cl)CC1 [VUF 10166] | 7.6%
O=C(Nc1cccc(Cl)c1)c1ccccn1 [VU 0364770] | 28.5%
CN1[C@@H]2CC(O)C[C@H]1[C@@H]1O[C@@H]12 (stereo partly drawn) [Scopine] | -19.4%
Cc1nc(C#Cc2ccnc(Cl)c2)c(C)n1-c1ccc(OC(F)(F)F)cc1 [CTEP (RO4956371)] | 31.0%
COc1ccccc1N1CCN(CCN(C(=O)C2CCCCC2)c2ccccn2)CC1.O=C(O)/C=C\C(=O)O [WAY-100635 Maleate] | 9.1%
COc1cc(OC)c(NC(=O)Nc2cc(C)on2)cc1Cl [PNU-120596] | -38.3%

Same assay, conditions: Influenza A virus, H1N1, U-937, 48 h, read-out: NA Inhibition (%)

Molecule | inhibition at 20 µM [%]
CNC[C@H](O)c1ccc(O)c(O)c1 [Epinephrine HCl] | 7.1
Cc1ccc(O)c([C@H](CCN(C(C)C)C(C)C)c2ccccc2)c1 [Tolterodine tartrate] | -12
CNC[C@H](O)c1cccc(O)c1 [Phenylephrine HCl] | 4.9
C=CCN1CC[C@]23c4c5ccc(O)c4O[C@H]2C(=O)CC[C@@]3(O)[C@H]1C5 [Naloxone HCl] | 25.4
CC(C)(C(=O)O)c1ccc(C(O)CCCN2CCC(C(O)(c3ccccc3)c3ccccc3)CC2)cc1 (stereo not drawn) [Fexofenadine HCl] | -9.9
C[C@]12N[C@H](Cc3ccccc31)c1ccccc12 [MK-801 (Dizocilpine), Dizocilpine] | 20.9
COCCCN1CCC(NC(=O)c2cc(Cl)c(N)c3c2OCC3)CC1 [Prucalopride] | 20.7
COc1cc2c(cc1OC)C(=O)C(CC1CCN(Cc3ccccc3)CC1)C2 (stereo not drawn) [Donepezil HCl] | 4.5
COc1cc(NC(=O)c2ccccn2)ccc1Cl [VU 0361737] | 23.5
CN(C)CCCN1c2ccccc2CCc2ccc(Cl)cc21 [Clomipramine HCl] | -11.3
CN1CCN(C(=O)c2cc3cc(Cl)ccc3[nH]2)CC1 [JNJ-7777120] | 19.7
CN1[C@@H]2C[C@@H](OC(=O)[C@H](CO)c3ccccc3)C[C@H]1[C@@H]1O[C@@H]12 [Scopolamine HBr] | -0.4
O=c1n(CCCN2CCN(c3cccc(Cl)c3)CC2)nc2ccccn12 [Trazodone HCl] | -9.8
CNCCCC12CCC(c3ccccc31)c1ccccc12 [Maprotiline HCl] | -23.2
CC(=O)SCC(Cc1ccccc1)C(=O)NCC(=O)OCc1ccccc1 (stereo not drawn) [Racecadotril] | -29.5

Same assay, conditions: Influenza A virus, H1N1, U-937, 48 h; read-out: NA Inhibition (%)

Molecule | inhibition at 20 µM [%]
CC(NCCc1ccc(O)cc1)C(O)c1ccc(O)cc1 (stereo not drawn) [Ritodrine HCl] | -20.6
O=S(=O)(c1ccccc1)c1cnc2c(N3CCNCC3)cccc2c1 [SB742457] | 16.8
c1ccc2c(CC3=NCCN3)cccc2c1 [Naphazoline HCl] | -18.7
COC(=O)C1=CCCN(C)C1 [Arecoline] | -10.6
COc1ccccc1N1CCN(CCN2C(=O)CC3(CCCC3)CC2=O)CC1 [BMY 7378] | 23.8
C[N+]1(C)[C@@H]2C[C@@H](OC(=O)C(O)(c3cccs3)c3cccs3)C[C@H]1[C@@H]1O[C@@H]12 [Tiotropium Bromide hydrate] | -34.7
CN1[C@@H]2CC[C@H]1C[C@@H](OC(=O)C(CO)c1ccccc1)C2 (stereo partly drawn) [Atropine] | -5.8
CCCCCCCCOc1ccccc1C(=O)Nc1ccc(C(=O)OCC[N+](C)(CC)CC)cc1 [Otilonium Bromide] | -2.3
CCN(CC)CC(=O)Nc1c(C)cccc1C [Lidocaine] | 5.1
O=C(O)c1cccnc1Nc1cccc(C(F)(F)F)c1 [Niflumic acid] | 23.7
CC[N+](CC)(CC)CCOc1cccc(OCC[N+](CC)(CC)CC)c1OCC[N+](CC)(CC)CC [Gallamine Triethiodide] | -9
Cc1cccc(C)c1N=C1NCCCS1 [Xylazine HCl] | -20
CN1CCC[C@@H]1Cc1c[nH]c2ccc(CCS(=O)(=O)c3ccccc3)cc12 [Eletriptan HBr] | 20.2
CC(COc1ccccc1)N(CCCl)Cc1ccccc1 (stereo not drawn) [Phenoxybenzamine HCl] | 95.4
CN1CCC(=C2c3ccccc3C=Cc3ccccc32)CC1 [Cyproheptadine HCl] | 4.6
CCc1cc2c(cc1CC)CC(NC[C@H](O)c1ccc(O)c3[nH]c(=O)ccc13)C2 [Indacaterol Maleate] | -6
C[N+]1(C)[C@@H]2CC[C@H]1C[C@@H](OC(=O)C(O)c1ccccc1)C2 (stereo partly drawn) [Homatropine Methylbromide] | -12

Test system: not listed separately
Assay: in vitro
Details: human, Relative Viability (%)

Molecule | viability at 20 µM [%]
CN[C@H]1CC[C@@H](c2ccc(Cl)c(Cl)c2)c2ccccc21 [Sertraline HCl] | 124
Cc1ccccc1C(OCCN(C)C)c1ccccc1 (stereo not drawn) [Orphenadrine Citrate] | 106
CN1CC2c3ccccc3Oc3ccc(Cl)cc3C2C1 (stereo not drawn) [Asenapine] | 87.1
CC(C)(C)c1ccc(C(=O)CCCN2CCC(OC(c3ccccc3)c3ccccc3)CC2)cc1 [Ebastine] | 105
